# Laboratory results as given in ChEMBL document CHEMBL1130335, “Comparative molecular field analysis of a series of paclitaxel analogues” (J Med Chem, 1997).
# Assay: Measured activity expressed as ID50 (analogue)/ID50 (paclitaxel), where ID50 is the concentration of compound leading to 50% inhibition of the rate microtubule disassembly
# Format: functional
row,Structure (SMILES),Activity
1,CC(=O)O[C@H]1C(=O)[C@]2(C)[C@@H](O)CC3OC[C@@]3(OC(C)=O)[C@H]2[C@H](OC(=O)c2ccccc2)[C@]2(O)C[C@H](OC(=O)[C@@H](NC(=O)OC(C)(C)C)[C@@H](O)c3ccccc3)C(C)=C1C2(C)C (some centres undefined),108
2,CC(=O)O[C@H]1C(=O)[C@]2(C)[C@@H](O)CC3OC[C@@]3(OC(C)=O)[C@H]2[C@H](OC(=O)c2ccccc2)[C@]2(O)C[C@H](OC(=O)[C@H](O)[C@H](NC(=O)c3ccccc3)c3ccccn3)C(C)=C1C2(C)C (some centres undefined),0.7
3,C/C=C/C(=O)O[C@H]1C[C@@]2(O)[C@@H](OC(=O)c3ccccc3)[C@H]3[C@](C)(C(=O)[C@H](OC(C)=O)C(=C1C)C2(C)C)[C@@H](O)CC1OC[C@]13OC(C)=O (some centres undefined),100
4,CC(=O)O[C@@H]1C2=C(C)[C@@H](OC(=O)[C@H](O)[C@@H](NC(=O)OC(C)C)c3ccccc3)C[C@@](O)([C@@H](OC(=O)c3ccccc3)[C@H]3[C@@](C)([C@@H](O)CC4OC[C@]43OC(C)=O)[C@H]1O)C2(C)C (some centres undefined),0.75
5,CC(=O)O[C@@H]1C2=C(C)[C@@H](OC(=O)[C@H](O)[C@H](COc3ccccc3)NC(=O)c3ccccc3)C[C@@](O)([C@@H](OC(=O)c3ccccc3)[C@H]3[C@@](C)([C@@H](O)CC4OC[C@]43OC(C)=O)[C@H]1O)C2(C)C (some centres undefined),5.81
6,CC(=O)O[C@@H]1C2=C(C)[C@@H](OC(=O)[C@H](O)[C@@H](NC(=O)OC(C)(C)C)C3CCCCC3)C[C@@](O)([C@@H](OC(=O)c3ccccc3)[C@H]3[C@@](C)([C@@H](O)CC4OC[C@]43OC(C)=O)[C@H]1O)C2(C)C (some centres undefined),0.57
7,CC(=O)O[C@@]12COC1C[C@H](O)[C@@]1(C)C(=O)[C@H](O)C3=C(C)[C@@H](OC(=O)[C@H](O)Cc4ccccc4)C[C@@](O)([C@@H](OC(=O)c4ccccc4)[C@@H]12)C3(C)C (some centres undefined),4.5
8,CC(=O)O[C@@]12COC1C[C@H](O)[C@@]1(C)C(=O)[C@H](O)C3=C(C)[C@@H](OC(=O)[C@H](O)[C@@H](NC(=O)OC(C)(C)C)c4ccccc4)[C@H](O)[C@@](O)([C@@H](OC(=O)c4ccccc4)[C@@H]12)C3(C)C (some centres undefined),0.8
9,CC(=O)O[C@H]1C(=O)[C@]2(C)[C@@H](O)CC3OC[C@@]3(OC(C)=O)[C@H]2[C@H](OC(=O)c2ccccc2)[C@]2(O)C[C@H](OC(=O)[C@H](O)[C@H](NC(=O)c3ccc(Cl)cc3)c3ccccc3)C(C)=C1C2(C)C (some centres undefined),2.4
10,CO[C@H]1CC2OC[C@@]2(OC(C)=O)[C@H]2[C@H](OC(=O)c3ccccc3)[C@]3(O)C[C@H](OC(=O)[C@H](O)[C@@H](NC(=O)OC(C)(C)C)c4ccccc4)C(C)=C([C@@H](OC(C)=O)[C@H](O)[C@]12C)C3(C)C (some centres undefined),1.74
11,CC(=O)O[C@H]1C(=O)[C@]2(C)[C@@H](O)CC3OC[C@@]3(OC(C)=O)[C@H]2[C@H](OC(=O)c2ccccc2)[C@]2(O)C[C@H](OC(=O)C(O)C(C)O)C(C)=C1C2(C)C (some centres undefined),60
12,CC(=O)O[C@@]12COC1C[C@H](O)[C@@]1(C)C(=O)[C@H](O)C3=C(C)[C@@H](OC(=O)[C@H](O)[C@@H](/C=C/c4ccccc4)NC(=O)OC(C)(C)C)C[C@@](O)([C@@H](OC(=O)c4ccccc4)[C@@H]12)C3(C)C (some centres undefined),1.45
13,CC(=O)O[C@H]1C(=O)[C@]2(C)[C@@H](O)CC3OC[C@@]3(OC(C)=O)[C@H]2[C@H](OC(=O)c2ccccc2)[C@]2(O)C[C@H](OC(=O)[C@@H](O)[C@@H](NC(=O)OC(C)(C)C)c3ccccc3)C(C)=C1C2(C)C (some centres undefined),30
14,CC(=O)O[C@H]1C(=O)[C@]2(C)[C@@H](O)CC3OC[C@@]3(OC(C)=O)[C@H]2[C@H](OC(=O)C2CCCCC2)[C@]2(O)C[C@H](OC(=O)[C@H](O)[C@@H](NC(=O)C3CCCCC3)C3CCCCC3)C(C)=C1C2(C)C (some centres undefined),0.47
15,CC(=O)O[C@@]12COC1C[C@H](O)[C@@]1(C)C(=O)[C@H](O)C3=C(C)[C@@H](OC(=O)[C@H](O)[C@@H](CC(C)C)NC(=O)OC(C)(C)C)C[C@@](O)([C@@H](OC(=O)c4ccccc4)[C@@H]12)C3(C)C (some centres undefined),0.78
16,CC(=O)O[C@@]12COC1C[C@H](O)[C@@]1(C)C(=O)[C@H](O)C3=C(C)[C@@H](OC(=O)[C@H](NC(=O)c4ccccc4)[C@H](O)c4ccccc4)C[C@@](O)([C@@H](OC(=O)c4ccccc4)[C@@H]12)C3(C)C (some centres undefined),10
17,CC(=O)O[C@H]1C(=O)[C@]2(C)[C@@H](O)CC3OC[C@@]3(OC(C)=O)[C@H]2[C@H](OC(=O)c2ccccc2)[C@]2(O)C[C@H](OC(=O)[C@H](O)[C@H](NC(=O)c3ccccc3)c3ccc(Cl)cc3)C(C)=C1C2(C)C (some centres undefined),2.4
18,CC(=O)O[C@@]12COC1C[C@H](O)[C@@]1(C)C(=O)[C@H](O)C3=C(C)[C@@H](OC(=O)[C@@H](NC(=O)OC(C)(C)C)[C@@H](O)c4ccccc4)C[C@@](O)([C@@H](OC(=O)c4ccccc4)[C@@H]12)C3(C)C (some centres undefined),160
19,CC(=O)O[C@@]12COC1C[C@H](O)[C@@]1(C)C(=O)[C@H](O)C3=C(C)[C@@H](OC(=O)[C@H](O)[C@@H](NC(=O)OC(C)(C)C)c4ccccc4)[C@@H]4OC(C)(C)O[C@]4([C@@H](OC(=O)c4ccccc4)[C@@H]12)C3(C)C (some centres undefined),3
20,CC(=O)O[C@@]12COC1C[C@H](O)[C@@]1(C)C(=O)[C@H](O)C3=C(C)[C@@H](OC(=O)C(O)C(O)c4ccccc4)C[C@@](O)([C@@H](OC(=O)c4ccccc4)[C@@H]12)C3(C)C (some centres undefined),3

row,Structure (SMILES),Activity
1,CC(=O)O[C@@H]1C2=C(C)[C@@H](OC(=O)[C@H](O)[C@@H](NC(=O)OC(C)(C)C)[C@H]3COC(C)(C)O3)C[C@@](O)([C@@H](OC(=O)c3ccccc3)[C@H]3[C@@](C)([C@@H](O)CC4OC[C@]43OC(C)=O)[C@H]1O)C2(C)C (some centres undefined),7.91
2,CC(=O)O[C@@]12COC1C[C@H](O)[C@@]1(C)C(=O)[C@H](O)C3=C(C)[C@@H](OC(=O)[C@H](O)[C@H](NC(=O)c4cccs4)C(C)(C)C)C[C@@](O)([C@@H](OC(=O)c4ccccc4)[C@@H]12)C3(C)C (some centres undefined),0.42
3,CC(=O)O[C@H]1C(=O)[C@]2(C)[C@@H](O)CC3OC[C@@]3(OC(C)=O)[C@H]2[C@H](OC(=O)c2ccccc2)[C@]2(O)C[C@H](OC(=O)[C@H](O)[C@H](NC(=O)CC(C)C)c3ccccc3)C(C)=C1C2(C)C (some centres undefined),1.9
4,CC(=O)O[C@H]1C(=O)[C@]2(C)[C@@H](O)CC3OC[C@@]3(OC(C)=O)[C@H]2[C@H](OC(=O)c2ccccc2)[C@]2(O)C[C@H](OC(=O)[C@H](O)[C@H](NC(=O)c3ccc(C(F)(F)F)cc3)c3ccccc3)C(C)=C1C2(C)C (some centres undefined),6
5,COc1ccc(C(=O)N[C@H](c2ccccc2)[C@@H](O)C(=O)O[C@H]2C[C@@]3(O)[C@@H](OC(=O)c4ccccc4)[C@H]4[C@](C)(C(=O)[C@H](OC(C)=O)C(=C2C)C3(C)C)[C@@H](O)CC2OC[C@]24OC(C)=O)cc1 (some centres undefined),0.5
6,CC(=O)O[C@H]1C(=O)[C@]2(C)[C@@H](O)CC3OC[C@@]3(OC(C)=O)[C@H]2[C@H](OC(=O)c2ccccc2)[C@]2(O)C[C@H](OC(=O)[C@H](O)[C@H](NC(=O)C(C)(C)C)c3ccccc3)C(C)=C1C2(C)C (some centres undefined),2.6
7,COc1ccc([C@@H](NC(=O)c2ccccc2)[C@@H](O)C(=O)O[C@H]2C[C@@]3(O)[C@@H](OC(=O)c4ccccc4)[C@H]4[C@](C)(C(=O)[C@H](OC(C)=O)C(=C2C)C3(C)C)[C@@H](O)CC2OC[C@]24OC(C)=O)cc1 (some centres undefined),0.5
8,CC(=O)O[C@H]1C(=O)[C@]2(C)[C@@H](O)CC3OC[C@@]3(OC(C)=O)[C@H]2[C@H](OC(=O)c2ccccc2)[C@]2(O)C[C@H](OC(=O)[C@H](O)[C@H](NC(=O)CC(C)(C)C)c3ccccc3)C(C)=C1C2(C)C (some centres undefined),0.7
9,CC(=O)O[C@H]1C(=O)[C@]2(C)[C@@H](O)CC3OC[C@@]3(OC(C)=O)[C@H]2[C@H](OC(=O)c2ccccc2)[C@]2(O)C[C@H](OC(=O)[C@@H](NC(=O)c3ccccc3)[C@@H](O)c3ccccc3)C(C)=C1C2(C)C (some centres undefined),110
10,CC(=O)O[C@H]1C(=O)[C@]2(C)[C@@H](O)CC3OC[C@@]3(OC(C)=O)[C@H]2[C@H](OC(=O)c2ccccc2)[C@]2(O)C[C@H](OC(=O)[C@@H](O)[C@@H](NC(=O)c3ccccc3)c3ccccc3)C(C)=C1C2(C)C (some centres undefined),4.5
11,CC(=O)O[C@H]1C(=O)[C@]2(C)[C@@H](O)CC3OC[C@@]3(OC(C)=O)[C@H]2[C@H](OC(=O)c2ccccc2)[C@]2(O)C[C@H](OC(=O)[C@H](O)[C@H](NC(=O)c3ccccc3)c3ccc(O)cc3)C(C)=C1C2(C)C (some centres undefined),0.8
12,CC(=O)O[C@@H]1C2=C(C)[C@@H](OC(=O)[C@H](O)[C@@H](NC(=O)NC(C)(C)C)c3ccccc3)C[C@@](O)([C@@H](OC(=O)c3ccccc3)[C@H]3[C@@](C)([C@@H](O)CC4OC[C@]43OC(C)=O)[C@H]1O)C2(C)C (some centres undefined),1.06
13,CC(=O)O[C@H]1C(=O)[C@]2(C)[C@@H](O)CC3OC[C@@]3(OC(C)=O)[C@H]2[C@H](OC(=O)C2CCCCC2)[C@]2(O)C[C@H](OC(=O)[C@H](O)[C@@H](NC(=O)OC(C)(C)C)c3ccccc3)C(C)=C1C2(C)C (some centres undefined),0.67
14,CC(=O)O[C@@H]1C2=C(C)[C@@H](OC(=O)[C@H](O)[C@@H](NC(=O)OC(C)(C)C)c3ccccc3)C[C@@](O)([C@@H](OC(=O)c3ccccc3)[C@H]3[C@@](C)([C@@H](O)CC4OC[C@]43OC(C)=O)[C@H]1O)C2(C)C (some centres undefined),0.87
15,CC(=O)O[C@@]12COC1C[C@H](O)[C@@]1(C)C(=O)[C@H](O)C3=C(C)[C@@H](OC(=O)[C@H](O)[C@@H](C=C(C)C)NC(=O)OC(C)(C)C)C[C@@](O)([C@@H](OC(=O)c4ccccc4)[C@@H]12)C3(C)C (some centres undefined),0.64
16,CCCC[C@H](NC(=O)OC(C)(C)C)[C@@H](O)C(=O)O[C@H]1C[C@@]2(O)[C@@H](OC(=O)c3ccccc3)[C@H]3[C@@](C)([C@@H](O)CC4OC[C@]43OC(C)=O)[C@@H](O)[C@H](OC(C)=O)C(=C1C)C2(C)C (some centres undefined),9.74
17,CC(=O)O[C@H]1C(=O)[C@]2(C)[C@@H](O)CC3OC[C@@]3(OC(C)=O)[C@H]2[C@H](OC(=O)c2ccccc2)[C@]2(O)C[C@H](OC(=O)[C@H](NC(=O)c3ccccc3)[C@H](O)c3ccccc3)C(C)=C1C2(C)C (some centres undefined),10
18,CC(=O)O[C@H]1C(=O)[C@]2(C)[C@@H](O)CC3OC[C@@]3(OC(C)=O)[C@H]2[C@H](OC(=O)c2ccccc2)[C@]2(O)C[C@H](OC(=O)[C@H](O)[C@H](NC(=O)C(C)=O)c3ccccc3)C(C)=C1C2(C)C (some centres undefined),3.5
19,CC(=O)O[C@@H]1C2=C(C)[C@@H](OC(=O)[C@H](O)[C@H](C)NC(=O)OC(C)(C)C)C[C@@](O)([C@@H](OC(=O)c3ccccc3)[C@H]3[C@@](C)([C@@H](O)CC4OC[C@]43OC(C)=O)[C@H]1O)C2(C)C (some centres undefined),1.08
